Structures are written as SMILES. Where two headings read alike, the source gives them in different places.

Two compounds from patent US20250382631A1, “PROTAC-CID SYSTEMS FOR USE IN MULTIPLEX GENE REGULATION” (William Marsh Rice University, priority 2022, published 2025) can be followed below.

For assay [1], the system named is pUAS-1-driven EYFP expression in HEK293T cells transfected with GAL4- and VPR-fused PROTAC target protein / E3 ubiquitin ligase. Nature of the assay: PROTAC-CID inducible EYFP gene activation, flow cytometry. Type of assay: cell-based, human. The following applies: for Bottom (best-fit value) / Span (best-fit value) / Top (best-fit value): Table 4 nonlinear regression of EYFP activation; for Bottom (best-fit value) / Span (best-fit value) / Top (best-fit value) / Hillslope (best-fit value) / logEC50 (best-fit value) / EC50: FIG. 13A. In outline: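 HEK293T cells PEI-transfected with plasmids (60 ng each unless noted), medium changed at 12 h, then inducer small molecules in DMSO added. Viable single cells analysed by flow cytometry; EYFP mean intensity normalised to BFP, and fold change taken versus control group.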

In assay [2] the test system is mutated Cre gene with 2-bp micro-deletion / GFP expression in HEK293T cells. Nature of the assay: Inducible prime editing repair of micro-deleted Cre, GFP reporter. To be noted: 100 nM dTAG-13, FIGS. 3F and 18. Type of assay: cell-based, human. Here is the method:
Fluorescence assay using flow cytometry analysis. Cells were treated with 0.05% Trpsin EDTA (Thermo Fisher Scientific no. 25300054) or TrypLE (Thermo Fisher Scientific no. 12605028) after transfection and centrifuged at 3000 g for 5 min. Supernatant was removed and the cell pellet was resuspended with 200 μL phosphate buffered saline (PBS) without calcium and magnesium (Thermo Fisher Scientific no. 10010023). Cells were transferred into 12×75 mm flow tubes (Global Scientific no. 110410). Cells were analyzed by MA900 flow cytometry (SONY). 405 nm laser (FL6 filter) was used for testing the BFP channel. 488 nm (FL1 filter) was used for testing the EYFP and GFP channel. Automated alignment using Automatic Setup Beads kit (SONY no. LE-B3001) is performed before running samples. In FIGS. 3A, 3B, and 17, experiments were performed under 2% FSC, 17% BSC, 24% FL1. […] Flow cytometry data was processed and analyzed by FlowJo 10. […] The mean intensity of the reporter fluorescent protein (BFP and EYFP) in viable and single cell populations were calculated by FlowJo 10 as the mean of FL6-A and FL1-A. When calculating the fold change of relative fluorescence units (RFU), the relative fluorescence units of EYFP was calculated by dividing the mean of fluorescence intensity of EYFP with the mean of BFP fluorescence intensity for normalization as the following formula: […]

Where [3] appears, read: Table 4 nonlinear regression, Prism 9 [Agonist] vs. response variable slope (four parameters), no unit in table (the source gives nM), read-out: EC50 (best-fit value).
Where [4] appears, read: dose-response, read-out: EC50 for gene activation.

In the case of `Cc1ncsc1-c1ccc(CNC(=O)[C@@H]2C[C@@H](O)CN2C(=O)[C@@H](NC(=O)COCCOCCOCCNC(=O)C[C@@H]2N=C(c3ccc(Cl)cc3)c3c(sc(C)c3C)-n3c(C)nnc32)C(C)(C)C)cc1` [MZ1], the “grades of EYFP intensity” value in assay [1] (HEK293T transfected with GAL4-VHL, TRIM24^BD-VPR, BRD4^BD2-VPR and reporter plasmid, FIG. 2E: dTRIM24, MZ1 100 nM) is 13 fold. Moreover, in assay [1], the “Bottom (best-fit value)” value is reported as 1.416, the “Span (best-fit value)” value is 319.6 and the “Top (best-fit value)” value is reported as 321. Also, in assay [1] (Table 4 nonlinear regression), the “Hillslope (best-fit value)” value is 1.728 and the “logEC50 (best-fit value)” value came to 1.51. In assay [1] (setting [3]), the EC50 came to 32.4 nM. Moreover, in assay [1] (setting [4]), the 50% effective concentration (EC50) stood at 32 nM.

Turning to `CC[C@H](C(=O)N1CCCC[C@H]1C(=O)O[C@H](CCc1ccc(OC)c(OC)c1)c1ccccc1OCC(=O)NCCCCCCOc1cccc2c1C(=O)N(C1CCC(=O)NC1=O)C2=O)c1cc(OC)c(OC)c(OC)c1` (stereo partly shown) [dTAG-13], in assay [1], the “Bottom (best-fit value)” value is recorded as 2.581, the “Span (best-fit value)” value is on record as 135.7 and the “Top (best-fit value)” value is on record as 138.3. Also, in assay [1] (Table 4 nonlinear regression), the “Hillslope (best-fit value)” value worked out at 3.384 and the “logEC50 (best-fit value)” value came out at 1.724. The EC50 in assay [1] (setting [3]) worked out at 53 nM. Besides, in assay [1] (setting [4]), the EC50 was found to be 53 nM. In addition, the “increase in GFP expression (prime editing repair of micro-deleted Cre)” value in assay [2] is “more than 25 fold”.
